Data as given in PubChem BioAssay (NCI).
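Compound exposure: 48 hours, 5 concentrations, 96-well plates. GI50 is the concentration that inhibits growth by half. TGI marks complete inhibition of growth.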

Assays:
Test in all cases: NCI tumour cell line growth inhibition, 48 h
[1] = test system: M14 melanoma
[2] = test system: SW-620 colon
[3] = test system: KM12 colon
[4] = test system: SF-295 CNS
[5] = test system: HOP-92 NSCLC
[6] = test system: MDA-MB-435
[7] = test system: SF-539 CNS
[8] = test system: SNB-75 CNS
[9] = test system: HCT-116 colon
[10] = test system: RPMI-8226 leukemia
[11] = test system: OVCAR-3 ovarian
[12] = test system: NCI/ADR-RES ovarian
[13] = test system: SNB-19 CNS
[14] = test system: NCI-H226 lung
[15] = test system: SK-MEL-2 melanoma
[16] = test system: MCF7 breast
[17] = test system: UACC-62 melanoma
[18] = test system: CAKI-1 renal
[19] = test system: UACC-257 melanoma
[20] = test system: BT-549 breast
[21] = test system: SK-OV-3 ovarian
[22] = test system: HOP-62 NSCLC
[23] = test system: SF-268 CNS
[24] = test system: OVCAR-8 ovarian
[25] = test system: HL-60(TB) leukemia
[26] = test system: NCI-H460 lung
[27] = test system: UO-31 renal
[28] = test system: SR leukemia
[29] = test system: A549 NSCLC
[30] = test system: HCT-15 colon
[31] = test system: MDA-MB-231 breast
[32] = test system: RXF 393 renal
[33] = test system: U251 CNS
[34] = test system: IGROV1 ovarian
[35] = test system: LOX IMVI melanoma
[36] = test system: OVCAR-4 ovarian
[37] = test system: HT29 colon
[38] = test system: CCRF-CEM leukemia
[39] = test system: PC-3 prostate
[40] = test system: ACHN renal
[41] = test system: COLO 205 colon
[42] = test system: MALME-3M melanoma
[43] = test system: T-47D breast
[44] = test system: NCI-H23 lung
[45] = test system: TK-10 renal
[46] = test system: SN12C renal
[47] = test system: OVCAR-5 ovarian
[48] = test system: NCI-H522 lung
[49] = test system: HS 578T breast
[50] = test system: DU-145 prostate
[51] = test system: K-562 leukemia
[52] = test system: HCC-2998 colon
[53] = test system: SK-MEL-28 melanoma
[54] = test system: SK-MEL-5 melanoma
[55] = test system: MOLT-4 leukemia
[56] = test system: A498 renal
[57] = test system: EKVX NSCLC
[58] = test system: 786-0 renal

CCNC(=O)CCCCC(=O)c1c(C)[nH]c(/C=C2\N=C(c3ccc[nH]3)C=C2OC)c1C
GI50 [1]: 2.68 µM | TGI [1]: 7.13 µM | GI50 [2]: 1.94 µM | TGI [2]: 3.51 µM | GI50 [3]: 2.17 µM | TGI [3]: 4.79 µM | GI50 [4]: 2.81 µM | TGI [4]: 7.6 µM | GI50 [5]: 2.04 µM | TGI [5]: 9.69 µM | GI50 [6]: 2.77 µM | TGI [6]: 7.74 µM | GI50 [7]: 1.59 µM | TGI [7]: 3.34 µM | GI50 [8]: 3.26 µM | TGI [8]: 24.4 µM | GI50 [9]: 2.33 µM | TGI [9]: 23.6 µM | GI50 [10]: 2.79 µM | TGI [10]: > 100 µM | GI50 [11]: 1.85 µM | TGI [11]: 3.67 µM | GI50 [12]: 2.94 µM | TGI [12]: 10.8 µM | GI50 [13]: 6.74 µM | TGI [13]: 19.2 µM | GI50 [14]: 20.3 µM | TGI [14]: 41.1 µM | GI50 [15]: 3.14 µM | TGI [15]: 7.44 µM | GI50 [16]: 1.84 µM | TGI [16]: 4.51 µM | GI50 [17]: 6.11 µM | TGI [17]: 19.3 µM | GI50 [18]: 2.09 µM | TGI [18]: 5 µM | GI50 [19]: 6.41 µM | TGI [19]: 26.1 µM | GI50 [20]: 2.85 µM | TGI [20]: 10.3 µM | GI50 [21]: 2.59 µM | TGI [21]: 5.76 µM | GI50 [22]: 1.1 µM | TGI [22]: 2.88 µM | GI50 [23]: 2.41 µM | TGI [23]: 6.52 µM | GI50 [24]: 2.96 µM | TGI [24]: 7.73 µM | GI50 [25]: 2.06 µM | TGI [25]: 5.41 µM | GI50 [26]: 1.95 µM | TGI [26]: 4.19 µM | GI50 [27]: 2.03 µM | TGI [27]: 4.51 µM | GI50 [28]: 1.65 µM | TGI [28]: 32.8 µM | GI50 [29]: 4.72 µM | TGI [29]: 21.4 µM | GI50 [30]: 1.83 µM | TGI [30]: 4.4 µM | GI50 [31]: 2.04 µM | TGI [31]: 4.32 µM | GI50 [32]: 2.97 µM | TGI [32]: 8.41 µM | GI50 [33]: 1.99 µM | TGI [33]: 4.5 µM | GI50 [34]: 3.82 µM | TGI [34]: > 100 µM | GI50 [35]: 1.76 µM | TGI [35]: 3.65 µM | GI50 [36]: 1.76 µM | TGI [36]: 4.36 µM | GI50 [37]: 2.34 µM | TGI [37]: 7.68 µM | GI50 [38]: 2.59 µM | TGI [38]: > 100 µM | GI50 [39]: 1.63 µM | TGI [39]: 5.8 µM | GI50 [40]: 1.8 µM | TGI [40]: 3.34 µM | GI50 [41]: 1.97 µM | TGI [41]: 3.65 µM | GI50 [42]: 2.32 µM | TGI [42]: 5.74 µM | GI50 [43]: 2.68 µM | TGI [43]: 6.43 µM | GI50 [44]: 4.5 µM | TGI [44]: 24.5 µM | GI50 [45]: 2.37 µM | TGI [45]: 5.37 µM | GI50 [46]: 2.47 µM | TGI [46]: 6.16 µM | GI50 [47]: 6.01 µM | TGI [47]: 20.6 µM | GI50 [48]: 2.2 µM | TGI [48]: 5.48 µM | GI50 [49]: 2.04 µM | TGI [49]: 4.92 µM | GI50 [50]: 3.01 µM | TGI [50]: 11 µM | GI50 [51]: 3.23 µM | TGI [51]: > 100 µM | GI50 [52]: 2.42 µM | TGI [52]: 7.9 µM | GI50 [53]: 1.66 µM | TGI [53]: 3.09 µM | GI50 [54]: 11.7 µM | TGI [54]: 24.9 µM | GI50 [55]: 2.31 µM | TGI [55]: > 100 µM | GI50 [56]: 8.19 µM | TGI [56]: 21 µM | GI50 [57]: 11.2 µM | TGI [57]: 31.7 µM

Cc1sc2c(c1C)C(c1ccc(Cl)cc1)=N[C@@H](CC(=O)Nc1ccc(O)cc1)c1nnc(C)n1-2
GI50 [1]: 0.276 µM | TGI [1]: 20.2 µM | GI50 [2]: 10.6 µM | TGI [2]: 32 µM | GI50 [3]: 4.52 µM | TGI [3]: 29.6 µM | GI50 [4]: 2 µM | TGI [4]: 22.4 µM | GI50 [5]: 0.0423 µM | TGI [5]: 13.1 µM | GI50 [6]: 0.399 µM | TGI [6]: 19 µM | GI50 [7]: 0.629 µM | TGI [7]: 19 µM | GI50 [8]: 0.0297 µM | TGI [8]: 8.58 µM | GI50 [9]: 0.499 µM | TGI [9]: 17.8 µM | GI50 [10]: 0.168 µM | TGI [10]: 11.8 µM | GI50 [11]: 0.888 µM | TGI [11]: 18.7 µM | GI50 [12]: 9.45 µM | TGI [12]: 69.7 µM | GI50 [13]: 0.721 µM | TGI [13]: 31.3 µM | GI50 [14]: 4.48 µM | TGI [14]: 26 µM | GI50 [15]: 3.31 µM | TGI [15]: 22 µM | GI50 [16]: 0.0553 µM | TGI [16]: 18.2 µM | GI50 [17]: 0.162 µM | TGI [17]: 18.1 µM | GI50 [18]: 0.0946 µM | TGI [18]: 16.2 µM | GI50 [19]: 0.632 µM | TGI [19]: 26.9 µM | GI50 [20]: 4.17 µM | TGI [20]: 24.2 µM | GI50 [21]: 0.15 µM | TGI [21]: 15 µM | GI50 [58]: 0.837 µM | TGI [58]: 24.8 µM | GI50 [22]: 0.18 µM | TGI [22]: 17.2 µM | GI50 [23]: 11.8 µM | TGI [23]: 50.8 µM | GI50 [24]: 2.26 µM | TGI [24]: 40.6 µM | GI50 [25]: 0.179 µM | TGI [25]: 8.21 µM | GI50 [26]: 2.95 µM | TGI [26]: 27.4 µM | GI50 [27]: 0.151 µM | TGI [27]: 15.4 µM | GI50 [28]: 0.344 µM | TGI [28]: 28.6 µM | GI50 [29]: 2.6 µM | TGI [29]: 26.8 µM | GI50 [30]: 1.46 µM | TGI [30]: 14.9 µM | GI50 [31]: 0.18 µM | TGI [31]: 21.7 µM | GI50 [32]: 1.79 µM | TGI [32]: 15.5 µM | GI50 [33]: 3.78 µM | TGI [33]: 21.7 µM | GI50 [34]: 2.5 µM | TGI [34]: 39.9 µM | GI50 [35]: 0.109 µM | TGI [35]: 6.29 µM | GI50 [36]: 0.585 µM | TGI [36]: > 67 µM | GI50 [37]: 0.197 µM | TGI [37]: 18.9 µM | GI50 [38]: 0.317 µM | TGI [38]: 31.4 µM | GI50 [39]: 1.11 µM | TGI [39]: 23.1 µM | GI50 [40]: 1.28 µM | TGI [40]: 29.9 µM | GI50 [41]: 0.146 µM | TGI [41]: 14.3 µM | GI50 [42]: 12.5 µM | TGI [42]: 33.4 µM | GI50 [43]: 0.245 µM | TGI [43]: 28.2 µM | GI50 [44]: 7.98 µM | TGI [44]: 39.2 µM | GI50 [45]: 0.0941 µM | TGI [45]: 19 µM | GI50 [46]: 9.41 µM | TGI [46]: 30.7 µM | GI50 [47]: 11.6 µM | TGI [47]: 30.3 µM | GI50 [48]: 0.262 µM | TGI [48]: 16.1 µM | GI50 [49]: 0.169 µM | TGI [49]: 27.2 µM | GI50 [50]: 14.7 µM | TGI [50]: 42.8 µM | GI50 [51]: 0.499 µM | TGI [51]: 60.3 µM | GI50 [52]: 2.48 µM | TGI [52]: 21.8 µM | GI50 [53]: 5.31 µM | TGI [53]: 26.4 µM | GI50 [54]: 0.472 µM | TGI [54]: 14.9 µM | GI50 [55]: 3.85 µM | TGI [55]: 54.7 µM | GI50 [56]: 0.204 µM | TGI [56]: 2.48 µM
